Test results from US20060124903A1, “Aerosol preparation comprising sealed container and enclosed therein aerosol composition containing marcolide compound” (Astellas Pharma Inc., priority 2003, published 2006).

Experiments:
[1] = Content of tacrolimus solvable in liquefied hydrofluoroalkane; type: physicochemical; settings: liquefied hydrofluoroalkane (HFA-134a, HFA-227)
[2] = Adsorptivity of tacrolimus to resinous material constituting valve part (FIG. 3); type: physicochemical
Text: FIG. 3 illustrates the adsorptivity of the active ingredient contained in the aerosol composition to each sample resinous material soaked in the aerosol composition.
The axis of ordinates designates the ratio of (remaining) active ingredient in the aerosol composition to the initial active ingredient therein when the percentage of the initial active ingredient contained in the aerosol composition is 100%.
The aerosol composition used in the test of FIG. 3 contains a 0.025 wt % macrolide compound. To be concrete, the aerosol composition is a solution that contains 2.5 mg tacrolimus serving as the active ingredient, 10 ml liquefied hydrofluoroalkane (HFA-134a) serving as the propellant, and a little amount of lubricant normally used for metered dose inhalation.
In the test of FIG. 3, each of the sample resinous materials is formed into a circular shape having a 5 mm diameter (a 39 mm^2 surface area), similar to the form of first gasket 11. Each of the sample resinous materials is soaked in the aerosol composition solution under the condition of 75% relative humidity and 50° C. for a month. […]

Compound | content of the tacrolimus solvable in the liquefied hydrofluoroalkane [1] | ratio of (remaining) active ingredient in the aerosol composition to the initial active ingredient [2]
C=CC[C@@H]1/C=C(\C)C[C@H](C)C[C@H](OC)[C@H]2O[C@@](O)(C(=O)C(=O)N3CCCC[C@H]3C(=O)O[C@H](/C(C)=C/[C@@H]3CC[C@@H](O)[C@H](OC)C3)[C@H](C)[C@@H](O)CC1=O)[C@H](C)C[C@@H]2OC [tacrolimus] | not more than 0.15 wt % | –
polyethylene | – | scarcely reduced
polypropylene | – | scarcely reduced
